Patent publication US8470845B2, “Analgesic and methods of treating pain” (Toray Industries, Inc., priority 2004, dated 2013)
Where a name gives a salt, the structure may show the parent alone. Read-outs that look alike come from different tables or passages of the source.

Test system: male ddY mouse
Test: Analgesic activity test by mouse acetic acid writhing method
Format: in vivo
Conditions: subcutaneous, 15 minutes before i.p. 0.6% acetic acid, dosage to halve the number of writhing response
Description: To each male ddY mouse, each test compound or the vehicle was subcutaneously administered in an administration volume of 0.1 mL/10 g body weight. Fifteen minutes later, 0.1 mL/10 g body weight of aqueous 0.6% (v/v) acetic acid solution was intraperitoneally administered. From 10 minutes after the administration of the acetic acid solution, the number of writhing response (i.e., the behavior to bend the body backward and/or twist the body) during 10 minutes was counted, and the analgesic activity was evaluated based on the number of writhing response. […] 10% Aqueous dimethylsulfoxide (DMSO) was used as a vehicle for test compounds 1, 2, 3, 4, 5, 6, 7, 8, 9, 10, 11, 12, 13, 14, 15, 16, 17, 18, 19, 20, 21 and 22. 0.1% Citric acid/aqueous 5% xylitol was used as a vehicle for test compounds 10f.

In the case of O=C1C(Cc2ccccc2)CCN1[C@H]1CC[C@@]2(O)[C@H]3Cc4ccc(O)c5c4[C@@]2(CCN3CC2CC2)[C@H]1O5 (mixture of isomers) [Compound 4, 1-(17-cyclopropylmethyl-4,5α-epoxy-3,14-dihydroxymorphinan-6α-yl)-3-benzyl-pyrrolidine-2-one (diastereomer mixture).tartaric acid salt], the ED50 (Mus musculus, read-out: ED50) is reported as 0.26 mg/kg.

Work on Cl.O=C1CCCN1[C@@H]1CC[C@@]2(O)[C@H]3Cc4ccc(O)c5c4[C@@]2(CCN3CC2CC2)[C@H]1O5 [Compound 1, 1-(17-cyclopropylmethyl-4,5α-epoxy-3,14-dihydroxy-morphinan-6β-yl)pyrrolidine-2-one-hydrochloric acid salt] yielded an ED50 (Mus musculus, read-out: ED50) of 2.62 mg/kg.

Compound Cl.O=C1CCCN1[C@H]1CC[C@@]2(O)[C@H]3Cc4ccc(O)c5c4[C@@]2(CCN3CC2CC2)[C@H]1O5 [Compound 2, 1-(17-cyclopropylmethyl-4,5α-epoxy-3,14-dihydroxy-morphinan-6α-yl)pyrrolidine-2-one-hydrochloric acid salt] has an ED50 (Mus musculus, read-out: ED50) of 0.95 mg/kg.

O=C1C(Cc2ccccc2)CCN1[C@@H]1CC[C@@]2(O)[C@H]3Cc4ccc(O)c5c4[C@@]2(CCN3CC2CC2)[C@H]1O5 (stereo partly drawn) [Compound 3, 1-(17-cyclopropylmethyl-4,5α-epoxy-3,14-dihydroxy-morphinan-6β-yl)-3-benzyl-pyrrolidine-2-one.tartaric acid salt] showed an ED50 (Mus musculus, read-out: ED50) of 0.28 mg/kg.

O=C1c2ccccc2CN1[C@@H]1CC[C@@]2(O)[C@H]3Cc4ccc(O)c5c4[C@@]2(CCN3CC2CC2)[C@H]1O5 [Compound 5, 2-(17-cyclopropylmethyl-4,5α-epoxy-3,14-dihydroxy-morphinan-6β-yl)-2,3-dihydroisoindol-1-one.tartaric acid salt] was tested, and the ED50 (Mus musculus, read-out: ED50) was 0.071 mg/kg.

Compound CCC/C=C1\CC(=O)N([C@@H]2CC[C@@]3(O)[C@H]4Cc5ccc(O)c6c5[C@@]3(CCN4CC3CC3)[C@H]2O6)C1=O [Compound 6, N-(17-cyclopropylmethyl-4,5α-epoxy-3,14-dihydroxy-morphinan-6β-yl)-2-butylidene succinic imide.tartaric acid salt] has an ED50 (Mus musculus, read-out: ED50) of 0.48 mg/kg.

With C=CCN1CC[C@]23c4c5ccc(O)c4O[C@H]2[C@H](N2C(=O)c4ccc(F)cc4C2=O)CC[C@@]3(O)[C@H]1C5 [Compound 7, N-(17-allyl-4,5α-epoxy-3,14-dihydroxymorphinan-6β-yl)-4-fluorophthalimide.tartaric acid salt] the ED50 (Mus musculus, read-out: ED50) was 0.033 mg/kg.

C=CCN1CC[C@]23c4c5ccc(O)c4O[C@H]2[C@@H](N2C(=O)c4cccc(F)c4C2=O)CC[C@@]3(O)[C@H]1C5 [Compound 8, N-(17-allyl-4,5α-epoxy-3,14-dihydroxy-morphinan-6α-yl)-3-fluorophthal-imide.tartaric acid salt] was tested, and the ED50 (Mus musculus, read-out: ED50) was 0.03 mg/kg.

C=CCN1CC[C@]23c4c5ccc(O)c4O[C@H]2[C@@H](N2C(=O)c4ccccc4C2=O)CC[C@@]3(O)[C@H]1C5 [Compound 9, N-(17-allyl-4,5α-epoxy-3,14-dihydroxymorphinan-6α-yl)-phthalimide.tartaric acid salt] showed an ED50 (Mus musculus, read-out: ED50) of 0.14 mg/kg.

Compound O=C1c2ccccc2C(=O)N1[C@@H]1CC[C@@]2(O)[C@H]3Cc4ccc(O)c5c4[C@@]2(CCN3CC2CC2)[C@H]1O5 [Compound 10, N-(17-cyclopropylmethyl-4,5α-epoxy-3,14-dihydroxymorphinan-6β-yl)-phthalimide.hydrochloric acid salt] has an ED50 (Mus musculus, read-out: ED50) of 0.031 mg/kg.

With Cc1ccc2c(c1)C(=O)N([C@@H]1CC[C@@]3(O)[C@H]4Cc5ccc(O)c6c5[C@@]3(CCN4CC3CC3)[C@H]1O6)C2=O [Compound 11, N-(17-cyclopropylmethyl-4,5α-epoxy-3,14-dihydroxy-morphinan-6β-yl)-4-methylphthalimide.hydrochloric acid salt] the ED50 (Mus musculus, read-out: ED50) was 0.045 mg/kg.

O=C1c2ccc(Cl)cc2C(=O)N1[C@@H]1CC[C@@]2(O)[C@H]3Cc4ccc(O)c5c4[C@@]2(CCN3CC2CC2)[C@H]1O5 [Compound 12, N-(17-cyclopropylmethyl-4,5α-epoxy-3,14-dihydroxy-morphinan-6β-yl)-4-chlorophthalimide.tartaric acid salt] gave an ED50 (Mus musculus, read-out: ED50) of 0.29 mg/kg.

O=C1c2ccc(F)cc2C(=O)N1[C@@H]1CC[C@@]2(O)[C@H]3Cc4ccc(O)c5c4[C@@]2(CCN3CC2CC2)[C@H]1O5 [Compound 13, N-(17-cyclopropylmethyl-4,5α-epoxy-3,14-dihydroxy-morphinan-6β-yl)-4-fluorophthalimide.tartaric acid salt] was tested, and the ED50 (Mus musculus, read-out: ED50) was 0.037 mg/kg.

For O=C1c2cccc(F)c2C(=O)N1[C@@H]1CC[C@@]2(O)[C@H]3Cc4ccc(O)c5c4[C@@]2(CCN3CC2CC2)[C@H]1O5 [Compound 14, N-(17-cyclopropylmethyl-4,5α-epoxy-3,14-dihydroxy-morphinan-6β-yl)-3-fluorophthalimide.tartaric acid salt], the ED50 (Mus musculus, read-out: ED50) was 0.034 mg/kg.

With Cc1cccc2c1C(=O)N([C@@H]1CC[C@@]3(O)[C@H]4Cc5ccc(O)c6c5[C@@]3(CCN4CC3CC3)[C@H]1O6)C2=O [Compound 15, N-(17-cyclopropylmethyl-4,5α-epoxy-3,14-dihydroxy-morphinan-6β-yl)-3-methylphthalimide.tartaric acid salt] the ED50 (Mus musculus, read-out: ED50) was 0.03 mg/kg.

O=C1c2cc3ccccc3cc2C(=O)N1[C@@H]1CC[C@@]2(O)[C@H]3Cc4ccc(O)c5c4[C@@]2(CCN3CC2CC2)[C@H]1O5 [Compound 16, N-(17-cyclopropylmethyl-4,5α-epoxy-3,14-dihydroxy-morphinan-6β-yl)naphthalenedicarboxylic imide.hydrochloric acid salt] gave an ED50 (Mus musculus, read-out: ED50) of 0.31 mg/kg.

In the case of O=C1c2cc(Cl)c(Cl)cc2C(=O)N1[C@@H]1CC[C@@]2(O)[C@H]3Cc4ccc(O)c5c4[C@@]2(CCN3CC2CC2)[C@H]1O5 [Compound 17, N-[17-(cyclopropylmethyl)-4,5α-epoxy-3,14-dihydroxymorphinan-6β-yl]]-4,5-dichlorophthalimide.tartaric acid salt], the ED50 (Mus musculus, read-out: ED50) is reported as 0.27 mg/kg.

Work on O=C(O)C(O)C(O)C(=O)O.O=C1c2ccccc2C(=O)N1[C@@H]1CC[C@@]2(O)[C@H]3Cc4ccc(O)c5c4[C@@]2(CCN3CC2CC2)[C@H]1O5 [Compound 18, N-(17-cyclopropylmethyl-4,5α-epoxy-3,14-dihydroxy-morphinan-6β-yl)-phthalimide.tartaric acid salt] yielded an ED50 of 0.019 mg/kg.

Compound O=C(O)C(O)C(O)C(=O)O.O=C1C2=C(CCCC2)C(=O)N1[C@@H]1CC[C@@]2(O)[C@H]3Cc4ccc(O)c5c4[C@@]2(CCN3CC2CC2)[C@H]1O5 [Compound 19, N-(17-cyclopropylmethyl-4,5α-epoxy-3,14-dihydroxy-morphinan-6β-yl)-3,4,5,6-tetrahydrophthalimide.tartaric acid salt] has an ED50 of 0.032 mg/kg.

O=C(O)C(O)C(O)C(=O)O.Oc1ccc2c3c1O[C@H]1[C@H](N4CCCC4)CC[C@@]4(O)[C@@H](C2)N(CC2CC2)CC[C@]314 [Compound 20, 17-cyclopropylmethyl-4,5α-epoxy-6β-(pyrrolidine-1-yl)-morphinan-3,14-diol.tartaric acid salt, reference compound] was tested, and the ED50 was >10 mg/kg.

For O=C1CCC(=O)N1[C@@H]1CC[C@@]2(O)[C@H]3Cc4ccc(O)c5c4[C@@]2(CCN3CC2CC2)[C@H]1O5 [Compound 21, N-(17-cyclopropylmethyl-4,5α-epoxy-3,14-dihydroxy-morphinan-6β-yl)-succinic imide.tartaric acid salt], the ED50 (Mus musculus, read-out: ED50) was 3.37 mg/kg.

In the case of O=C1C=CC(=O)N1[C@@H]1CC[C@@]2(O)[C@H]3Cc4ccc(O)c5c4[C@@]2(CCN3CC2CC2)[C@H]1O5 [Compound 22, N-(17-cyclopropylmethyl-4,5α-epoxy-3,14-dihydroxy-morphinan-6β-yl)-maleic imide.tartaric acid salt], the ED50 (Mus musculus, read-out: ED50) is reported as 2.18 mg/kg.
